Data from ChEMBL document CHEMBL1201862, “PubChem BioAssay data set” (2004).
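Cells were grown in 96-well plates and exposed to each compound for 48 hours at five concentrations; endpoints were interpolated linearly between bracketing concentrations, or set to the highest concentration if not reached. Here, GI50 denotes the concentration required for 50% inhibition of growth.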 Active and inactive are the calls of the source. No stated cut-off is given here; in the data, active = GI50 up to about 1.1 µM and inactive = higher.

Legend:
Experiment in all cases: NCI-60 cell line screen, 48 h
786-0 = tested on: 786-0
A498 = tested on: A498
A549 = tested on: A549
HCT-116 = tested on: HCT-116
HL-60 = tested on: HL-60
Hs-578T = tested on: Hs-578T
K562 = tested on: K562
LOX IMVI = tested on: LOX IMVI
MOLT-4 = tested on: MOLT-4
Malme-3M = tested on: Malme-3M
NCI-H23 = tested on: NCI-H23
RXF 393 = tested on: RXF 393
SF-268 = tested on: SF-268
SF-539 = tested on: SF-539
SK-MEL-28 = tested on: SK-MEL-28
SK-MEL-5 = tested on: SK-MEL-5
SK-OV-3 = tested on: SK-OV-3
UO-31 = tested on: UO-31
CCRF-CEM = tested on: CCRF-CEM

SMILES	GI50 (786-0)	GI50 (A498)	GI50 (A549)	GI50 (HCT-116)	GI50 (HL-60)	GI50 (Hs-578T)	GI50 (K562)	GI50 (LOX IMVI)	GI50 (MOLT-4)	GI50 (Malme-3M)	GI50 (NCI-H23)	GI50 (RXF 393)	GI50 (SF-268)	GI50 (SF-539)	GI50 (SK-MEL-28)	GI50 (SK-MEL-5)	GI50 (SK-OV-3)	GI50 (UO-31)	GI50 (CCRF-CEM)
O=C1C/C(=N/c2ccc(Cl)cc2)C(c2ccccc2)N1c1ccccc1 (stereo not given)	38.4 µM (inactive)	19.3 µM (inactive)	17.4 µM (inactive)	8.89 µM (inactive)	2.96 µM (inactive)	6.12 µM (inactive)	1.32 µM (inactive)	6.05 µM (inactive)	7.89 µM (inactive)	19.5 µM (inactive)	10 µM (inactive)	35 µM (inactive)	3.6 µM (inactive)	14 µM (inactive)	7.87 µM (inactive)	5.9 µM (inactive)	5.92 µM (inactive)	5.41 µM (inactive)	–
CN(C)Cc1cc(C(C)(C)C)cc(CN(C)C)c1O	60.1 µM (inactive)	> 100 µM (inactive)	76.6 µM (inactive)	35.6 µM (inactive)	–	> 100 µM (inactive)	> 100 µM (inactive)	95.9 µM (inactive)	49.2 µM (inactive)	> 100 µM (inactive)	> 100 µM (inactive)	> 100 µM (inactive)	79.3 µM (inactive)	86.7 µM (inactive)	> 100 µM (inactive)	> 100 µM (inactive)	> 100 µM (inactive)	21.3 µM (inactive)	21.4 µM (inactive)
CCOC(=O)N(Cc1cccs1)c1cc(OC)c(OC)c(OC)c1	> 100 µM (inactive)	> 100 µM (inactive)	94.6 µM (inactive)	> 100 µM (inactive)	34.8 µM (inactive)	86.5 µM (inactive)	26.2 µM (inactive)	45.2 µM (inactive)	13.6 µM (inactive)	> 100 µM (inactive)	> 100 µM (inactive)	83 µM (inactive)	> 100 µM (inactive)	–	> 100 µM (inactive)	41.7 µM (inactive)	–	38.4 µM (inactive)	41 µM (inactive)
CC(=O)N(C)C(C(=O)N1CC(C)CC1C(=O)N(C)C1C(=O)NC(CC(C)C)C(=O)N2CC(C)CC2C(=O)NC(CC(C)C)C(=O)N(C)C(C(C)C)C(=O)N2CCCC2C(=O)N(C)C(CC(C)C)C(=O)NCC(=O)OC1C)C(C)C (stereo not given)	> 100 µM (inactive)	> 100 µM (inactive)	> 100 µM (inactive)	> 100 µM (inactive)	> 100 µM (inactive)	> 100 µM (inactive)	> 100 µM (inactive)	> 100 µM (inactive)	> 100 µM (inactive)	–	> 100 µM (inactive)	> 100 µM (inactive)	> 100 µM (inactive)	> 100 µM (inactive)	> 100 µM (inactive)	> 100 µM (inactive)	> 100 µM (inactive)	> 100 µM (inactive)	> 100 µM (inactive)
CC(=O)Oc1ccccc1-c1cc2ccccc2oc1=O	> 100 µM (inactive)	> 100 µM (inactive)	> 100 µM (inactive)	> 100 µM (inactive)	> 100 µM (inactive)	> 100 µM (inactive)	> 100 µM (inactive)	> 100 µM (inactive)	> 100 µM (inactive)	> 100 µM (inactive)	83.8 µM (inactive)	–	> 100 µM (inactive)	> 100 µM (inactive)	> 100 µM (inactive)	–	–	46.8 µM (inactive)	> 100 µM (inactive)
O=C1CCCC2=C1CC1=C(CCCC1=O)N2c1ccccc1	> 100 µM (inactive)	> 100 µM (inactive)	> 100 µM (inactive)	–	> 100 µM (inactive)	> 100 µM (inactive)	> 100 µM (inactive)	> 100 µM (inactive)	> 100 µM (inactive)	–	> 100 µM (inactive)	40.7 µM (inactive)	> 100 µM (inactive)	> 100 µM (inactive)	> 100 µM (inactive)	> 100 µM (inactive)	> 100 µM (inactive)	> 100 µM (inactive)	> 100 µM (inactive)
COc1cc(-c2cn(S(=O)(=O)c3ccc(C)cc3)c3ccccc23)nc(-c2cn(S(=O)(=O)c3ccc(C)cc3)c3ccccc23)n1	1.35 µM (inactive)	1.32 µM (inactive)	0.473 µM (active)	0.385 µM (active)	2.19 µM (inactive)	0.433 µM (active)	0.373 µM (active)	0.6 µM (active)	0.69 µM (active)	–	0.245 µM (active)	0.372 µM (active)	0.755 µM (active)	0.222 µM (active)	23.3 µM (inactive)	0.566 µM (active)	2.25 µM (inactive)	0.968 µM (active)	12.2 µM (inactive)
COc1cc2oc3c(c(=O)c2c(O)c1/C=C/C(C)C)C(C=C(C)C)Oc1cc(O)ccc1-3 (stereo not given)	16.2 µM (inactive)	24.7 µM (inactive)	15 µM (inactive)	14.4 µM (inactive)	17.8 µM (inactive)	19 µM (inactive)	7.6 µM (inactive)	14.2 µM (inactive)	4.83 µM (inactive)	22.5 µM (inactive)	15.7 µM (inactive)	–	18.7 µM (inactive)	17.5 µM (inactive)	16.5 µM (inactive)	18.5 µM (inactive)	16.6 µM (inactive)	12.1 µM (inactive)	5.53 µM (inactive)
